Consider three compounds from ChEMBL document CHEMBL1909046, “DrugMatrix in vitro pharmacology data”.

In one test the target is Insulin receptor (Rattus norvegicus, UniProt P15127). Also: in other assays of this panel Not Active means under 50% inhibition at 10 µM.
Sequence of Insulin receptor (P15127 27-759 limits assumed): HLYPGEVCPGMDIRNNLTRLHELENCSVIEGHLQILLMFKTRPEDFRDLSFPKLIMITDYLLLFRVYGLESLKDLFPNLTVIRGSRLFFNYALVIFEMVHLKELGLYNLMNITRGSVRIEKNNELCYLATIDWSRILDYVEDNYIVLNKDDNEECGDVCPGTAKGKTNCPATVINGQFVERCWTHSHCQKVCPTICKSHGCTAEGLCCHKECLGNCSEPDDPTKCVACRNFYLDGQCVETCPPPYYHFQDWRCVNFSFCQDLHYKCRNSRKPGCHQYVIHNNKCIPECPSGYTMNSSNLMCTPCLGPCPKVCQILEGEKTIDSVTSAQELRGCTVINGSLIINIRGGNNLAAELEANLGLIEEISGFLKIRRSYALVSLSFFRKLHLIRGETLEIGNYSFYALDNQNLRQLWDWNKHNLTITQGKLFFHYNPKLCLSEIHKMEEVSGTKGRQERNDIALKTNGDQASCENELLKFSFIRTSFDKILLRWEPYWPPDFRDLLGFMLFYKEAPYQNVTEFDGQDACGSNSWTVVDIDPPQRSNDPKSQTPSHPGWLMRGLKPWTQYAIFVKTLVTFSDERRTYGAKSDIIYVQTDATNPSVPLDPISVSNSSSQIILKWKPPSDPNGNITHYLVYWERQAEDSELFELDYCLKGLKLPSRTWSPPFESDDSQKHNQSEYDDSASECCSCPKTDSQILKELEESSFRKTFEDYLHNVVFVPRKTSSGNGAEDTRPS
Sequence of Insulin receptor (P15127 764-1383 limits assumed): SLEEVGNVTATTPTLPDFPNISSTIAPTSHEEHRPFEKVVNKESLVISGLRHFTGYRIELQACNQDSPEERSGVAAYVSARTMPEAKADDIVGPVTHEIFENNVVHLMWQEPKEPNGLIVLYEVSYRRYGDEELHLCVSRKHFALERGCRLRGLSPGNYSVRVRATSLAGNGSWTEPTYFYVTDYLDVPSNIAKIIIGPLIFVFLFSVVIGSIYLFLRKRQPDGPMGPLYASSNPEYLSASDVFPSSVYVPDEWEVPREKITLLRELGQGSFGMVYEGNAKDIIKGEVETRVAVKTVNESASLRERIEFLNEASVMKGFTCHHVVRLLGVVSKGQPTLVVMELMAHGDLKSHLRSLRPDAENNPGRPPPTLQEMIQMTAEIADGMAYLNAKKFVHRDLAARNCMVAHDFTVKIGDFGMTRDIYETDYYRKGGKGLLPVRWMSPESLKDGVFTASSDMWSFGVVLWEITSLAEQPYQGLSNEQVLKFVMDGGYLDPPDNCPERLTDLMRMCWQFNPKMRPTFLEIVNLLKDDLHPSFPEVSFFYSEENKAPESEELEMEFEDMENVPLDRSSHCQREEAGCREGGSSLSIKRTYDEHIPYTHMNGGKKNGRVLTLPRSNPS
Assay: not given
In kind it is cell membranes, Wistar, Liver, Membrane.
Conditions: not given
With `COC1=CC(=O)C[C@@H](C)[C@]12Oc1c(Cl)c(OC)cc(OC)c1C2=O` [GRISEOFULVIN], the IC50 result is “Not Active”.
Still for that read-out and setting: the result for `O=C1NC(=O)C(c2ccccc2)(c2ccccc2)N1` [PHENYTOIN] reads “Not Active”; that for `COc1ccc2c(c1)c(CC(=O)OCC(=O)O)c(C)n2C(=O)c1ccc(Cl)cc1` [ACEMETACIN], “Not Active”.

The target in another test is T1, Leukotriene C4 synthase (Cavia porcellus, UniProt A6XA80).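 Also: enzyme inhibition assay of leukotriene C4 synthase, using LTA4 as the substrate; in other assays of this panel Not Active means under 50% inhibition at 10 µM.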
T1 sequence (A6XA80 whole entry): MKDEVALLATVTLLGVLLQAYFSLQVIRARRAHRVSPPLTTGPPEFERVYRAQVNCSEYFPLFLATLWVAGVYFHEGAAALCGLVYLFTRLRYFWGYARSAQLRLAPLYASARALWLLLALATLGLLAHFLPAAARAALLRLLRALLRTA
The experiment in a line: biochemical.
Conditions: not given
In kind it is tissue-based, Lung.
Regarding `COC1=CC(=O)C[C@@H](C)[C@]12Oc1c(Cl)c(OC)cc(OC)c1C2=O` [GRISEOFULVIN], the IC50 entry was “Not Active”.
Still for that read-out and setting: to `O=C1NC(=O)C(c2ccccc2)(c2ccccc2)N1` [PHENYTOIN] belongs “Not Active”; to `COc1ccc2c(c1)c(CC(=O)OCC(=O)O)c(C)n2C(=O)c1ccc(Cl)cc1` [ACEMETACIN], “Not Active”.

Test system in a further test: not listed separately
The test is described as follows: DRUGMATRIX: ATPase, Na+/K+ enzyme inhibition (substrate: ATP). The settings on record: Not Active = under 50% inhibition at 10 µM. In kind it is tissue-based, Sus scrofa, Heart.
Regarding `COC1=CC(=O)C[C@@H](C)[C@]12Oc1c(Cl)c(OC)cc(OC)c1C2=O` [GRISEOFULVIN], the IC50 entry is reported as “Not Active” and the Ki result is recorded as “Not Active”.
Take `O=C1NC(=O)C(c2ccccc2)(c2ccccc2)N1` [PHENYTOIN]: the IC50 entry is recorded as “Not Active” and the Ki entry was “Not Active”.
For `COc1ccc2c(c1)c(CC(=O)OCC(=O)O)c(C)n2C(=O)c1ccc(Cl)cc1` [ACEMETACIN], the IC50 entry is given as “Not Active” and the Ki result is reported as “Not Active”.

A further test deals with C-C chemokine receptor type 2 (Homo sapiens, UniProt P41597).
Sequence of C-C chemokine receptor type 2 (P41597 whole entry): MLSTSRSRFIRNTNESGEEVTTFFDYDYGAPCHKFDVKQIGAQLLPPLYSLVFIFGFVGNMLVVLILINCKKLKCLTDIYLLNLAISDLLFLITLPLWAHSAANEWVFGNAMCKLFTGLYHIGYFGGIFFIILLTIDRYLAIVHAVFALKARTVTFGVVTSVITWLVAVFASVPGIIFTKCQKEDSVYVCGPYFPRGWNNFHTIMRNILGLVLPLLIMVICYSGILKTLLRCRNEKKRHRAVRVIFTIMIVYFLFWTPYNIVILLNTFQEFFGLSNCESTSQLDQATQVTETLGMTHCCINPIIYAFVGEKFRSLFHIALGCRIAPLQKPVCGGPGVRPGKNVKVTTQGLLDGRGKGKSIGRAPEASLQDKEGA
Assay: not given
Format: cell membranes, CHO-K1, Membrane. The note with it: cho-k1.
In the case of `COC1=CC(=O)C[C@@H](C)[C@]12Oc1c(Cl)c(OC)cc(OC)c1C2=O` [GRISEOFULVIN], the IC50 entry is “Not Active”.
Consider `O=C1NC(=O)C(c2ccccc2)(c2ccccc2)N1` [PHENYTOIN], for which the IC50 result is on record as “Not Active”.
Still for that read-out and setting: the result for `COc1ccc2c(c1)c(CC(=O)OCC(=O)O)c(C)n2C(=O)c1ccc(Cl)cc1` [ACEMETACIN] reads “Not Active”.

Test system in a further test: not listed separately
The experiment in a line: DRUGMATRIX: Glutamate, Kainate radioligand binding (ligand: [3H] Kainic acid). The settings on record: Not Active = under 50% inhibition at 10 µM. In kind it is cell membranes, Rattus norvegicus, Wistar, Brain, Membrane.
For `COC1=CC(=O)C[C@@H](C)[C@]12Oc1c(Cl)c(OC)cc(OC)c1C2=O` [GRISEOFULVIN], the IC50 entry is “Not Active” and the Ki entry is on record as “Not Active”.
For the compound `O=C1NC(=O)C(c2ccccc2)(c2ccccc2)N1` [PHENYTOIN], the IC50 entry was “Not Active” and the Ki result is “Not Active”.
With `COc1ccc2c(c1)c(CC(=O)OCC(=O)O)c(C)n2C(=O)c1ccc(Cl)cc1` [ACEMETACIN], the IC50 result is reported as “Not Active” and the Ki result is recorded as “Not Active”.

Test system in the next test: not listed separately
The experiment in a line: DRUGMATRIX: Phorbol Ester radioligand binding (ligand: [3H] PDBu). Format: cell membranes, Mus musculus, ICR, Brain, Membrane. The note with it: Not Active = under 50% inhibition at 10 µM.
`COC1=CC(=O)C[C@@H](C)[C@]12Oc1c(Cl)c(OC)cc(OC)c1C2=O` [GRISEOFULVIN]: the IC50 result is recorded as “Not Active” and the Ki result is given as “Not Active”.
`O=C1NC(=O)C(c2ccccc2)(c2ccccc2)N1` [PHENYTOIN]: the IC50 entry is given as “Not Active” and the Ki result was “Not Active”.
Turning to `COc1ccc2c(c1)c(CC(=O)OCC(=O)O)c(C)n2C(=O)c1ccc(Cl)cc1` [ACEMETACIN], the IC50 entry is given as “Not Active” and the Ki result is reported as “Not Active”.

In a further test the target is cGMP-specific 3',5'-cyclic phosphodiesterase (Homo sapiens, UniProt O76074). The test is described as follows: DRUGMATRIX: Phosphodiesterase PDE5 enzyme inhibition (substrate: [3H]cGMP + cGMP). Format: tissue-based, Platelet. The settings on record: platelet; Not Active = under 50% inhibition at 10 µM.
Take `COC1=CC(=O)C[C@@H](C)[C@]12Oc1c(Cl)c(OC)cc(OC)c1C2=O` [GRISEOFULVIN]: the IC50 entry was “Not Active”.
Turning to `O=C1NC(=O)C(c2ccccc2)(c2ccccc2)N1` [PHENYTOIN], the IC50 entry is given as “Not Active”.
Regarding `COc1ccc2c(c1)c(CC(=O)OCC(=O)O)c(C)n2C(=O)c1ccc(Cl)cc1` [ACEMETACIN], the IC50 entry was “Not Active”.

For another test, the target named is Estrogen receptor beta (Homo sapiens, UniProt Q92731). Also: in other assays of this panel Not Active means under 50% inhibition at 10 µM.
Sequence of Estrogen receptor beta (Q92731 whole entry): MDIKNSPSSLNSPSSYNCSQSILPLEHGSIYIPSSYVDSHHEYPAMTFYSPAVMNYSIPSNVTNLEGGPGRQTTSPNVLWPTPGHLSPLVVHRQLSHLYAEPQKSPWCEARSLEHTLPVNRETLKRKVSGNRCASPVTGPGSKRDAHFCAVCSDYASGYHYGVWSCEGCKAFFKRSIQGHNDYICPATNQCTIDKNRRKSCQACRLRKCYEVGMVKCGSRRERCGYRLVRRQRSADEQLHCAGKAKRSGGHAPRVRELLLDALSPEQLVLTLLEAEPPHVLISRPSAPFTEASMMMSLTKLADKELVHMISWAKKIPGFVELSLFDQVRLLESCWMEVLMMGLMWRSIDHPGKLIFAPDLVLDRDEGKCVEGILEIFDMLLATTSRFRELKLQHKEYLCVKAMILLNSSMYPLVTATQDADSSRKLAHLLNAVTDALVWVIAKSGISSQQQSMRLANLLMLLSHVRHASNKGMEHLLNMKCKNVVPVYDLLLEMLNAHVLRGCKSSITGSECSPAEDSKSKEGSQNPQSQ
Assay: not given
The settings on record: sf9.
In the case of `COC1=CC(=O)C[C@@H](C)[C@]12Oc1c(Cl)c(OC)cc(OC)c1C2=O` [GRISEOFULVIN], the IC50 entry is recorded as “Not Active”.

A further test has as its target T2, Neutrophil elastase (Homo sapiens, UniProt P08246).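 Also: inhibition of neutrophil elastase enzyme activity, measured with a p-nitroanilide-linked peptide substrate; in other assays of this panel Not Active means under 50% inhibition at 10 µM.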
T2 sequence (P08246 whole entry): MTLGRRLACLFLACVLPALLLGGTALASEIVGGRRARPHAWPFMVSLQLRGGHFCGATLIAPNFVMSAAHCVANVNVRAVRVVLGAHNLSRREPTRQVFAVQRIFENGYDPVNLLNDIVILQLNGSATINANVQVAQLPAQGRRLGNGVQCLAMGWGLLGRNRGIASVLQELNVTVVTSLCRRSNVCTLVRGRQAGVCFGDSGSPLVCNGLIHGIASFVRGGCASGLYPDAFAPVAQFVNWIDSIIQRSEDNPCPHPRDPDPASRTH
Assay: not given
In kind it is tissue-based.
Conditions: not given
Regarding `COC1=CC(=O)C[C@@H](C)[C@]12Oc1c(Cl)c(OC)cc(OC)c1C2=O` [GRISEOFULVIN], the IC50 entry is “Not Active”.
`O=C1NC(=O)C(c2ccccc2)(c2ccccc2)N1` [PHENYTOIN]: the IC50 entry is recorded as “Not Active”.
Same read-out and setting: the result for `COc1ccc2c(c1)c(CC(=O)OCC(=O)O)c(C)n2C(=O)c1ccc(Cl)cc1` [ACEMETACIN] reads “Not Active”.

The target in a further test is T3, C-C chemokine receptor type 4 (Homo sapiens, UniProt P51679). Also: in other assays of this panel Not Active means under 50% inhibition at 10 µM.
T3 sequence (P51679 whole entry): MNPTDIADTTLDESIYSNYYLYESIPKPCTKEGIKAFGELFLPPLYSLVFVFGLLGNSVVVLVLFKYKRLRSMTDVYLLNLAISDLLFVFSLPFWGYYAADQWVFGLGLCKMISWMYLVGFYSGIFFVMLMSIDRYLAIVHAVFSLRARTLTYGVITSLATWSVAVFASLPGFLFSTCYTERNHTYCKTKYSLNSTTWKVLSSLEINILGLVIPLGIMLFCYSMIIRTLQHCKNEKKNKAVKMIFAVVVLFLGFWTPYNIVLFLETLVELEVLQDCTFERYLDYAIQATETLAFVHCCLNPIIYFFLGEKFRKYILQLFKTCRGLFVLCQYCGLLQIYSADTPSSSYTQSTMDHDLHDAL
Assay: not given
Format: cell membranes, Membrane. The settings on record: chem-1.
As for `COC1=CC(=O)C[C@@H](C)[C@]12Oc1c(Cl)c(OC)cc(OC)c1C2=O` [GRISEOFULVIN], the IC50 entry was “Not Active”.
With `O=C1NC(=O)C(c2ccccc2)(c2ccccc2)N1` [PHENYTOIN], the IC50 result is given as “Not Active”.
Consider `COc1ccc2c(c1)c(CC(=O)OCC(=O)O)c(C)n2C(=O)c1ccc(Cl)cc1` [ACEMETACIN], for which the IC50 result is “Not Active”.

Another test addresses T4, Neuropeptide Y receptor type 1 (Homo sapiens, UniProt P25929).
T4 sequence (P25929 whole entry): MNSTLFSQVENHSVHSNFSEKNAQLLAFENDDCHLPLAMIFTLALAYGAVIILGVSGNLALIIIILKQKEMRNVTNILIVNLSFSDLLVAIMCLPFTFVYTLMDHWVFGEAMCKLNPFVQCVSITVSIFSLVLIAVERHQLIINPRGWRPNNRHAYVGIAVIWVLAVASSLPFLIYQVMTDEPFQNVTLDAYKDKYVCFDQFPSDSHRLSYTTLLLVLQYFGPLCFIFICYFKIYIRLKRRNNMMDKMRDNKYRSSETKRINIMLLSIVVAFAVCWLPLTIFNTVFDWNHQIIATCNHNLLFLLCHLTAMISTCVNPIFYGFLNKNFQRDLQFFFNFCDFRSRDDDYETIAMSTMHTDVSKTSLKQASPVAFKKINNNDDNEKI
Assay: not given
The note with it: sk-n-mc. In kind it is cell membranes, Membrane.
In the case of `COC1=CC(=O)C[C@@H](C)[C@]12Oc1c(Cl)c(OC)cc(OC)c1C2=O` [GRISEOFULVIN], the IC50 result is reported as “Not Active”.
For `O=C1NC(=O)C(c2ccccc2)(c2ccccc2)N1` [PHENYTOIN], the IC50 result is on record as “Not Active”.
Still for that read-out and setting: the result for `COc1ccc2c(c1)c(CC(=O)OCC(=O)O)c(C)n2C(=O)c1ccc(Cl)cc1` [ACEMETACIN] reads “Not Active”.

Another test deals with T5, Nitric oxide synthase, inducible (Mus musculus, UniProt P29477).
T5 sequence (P29477 whole entry): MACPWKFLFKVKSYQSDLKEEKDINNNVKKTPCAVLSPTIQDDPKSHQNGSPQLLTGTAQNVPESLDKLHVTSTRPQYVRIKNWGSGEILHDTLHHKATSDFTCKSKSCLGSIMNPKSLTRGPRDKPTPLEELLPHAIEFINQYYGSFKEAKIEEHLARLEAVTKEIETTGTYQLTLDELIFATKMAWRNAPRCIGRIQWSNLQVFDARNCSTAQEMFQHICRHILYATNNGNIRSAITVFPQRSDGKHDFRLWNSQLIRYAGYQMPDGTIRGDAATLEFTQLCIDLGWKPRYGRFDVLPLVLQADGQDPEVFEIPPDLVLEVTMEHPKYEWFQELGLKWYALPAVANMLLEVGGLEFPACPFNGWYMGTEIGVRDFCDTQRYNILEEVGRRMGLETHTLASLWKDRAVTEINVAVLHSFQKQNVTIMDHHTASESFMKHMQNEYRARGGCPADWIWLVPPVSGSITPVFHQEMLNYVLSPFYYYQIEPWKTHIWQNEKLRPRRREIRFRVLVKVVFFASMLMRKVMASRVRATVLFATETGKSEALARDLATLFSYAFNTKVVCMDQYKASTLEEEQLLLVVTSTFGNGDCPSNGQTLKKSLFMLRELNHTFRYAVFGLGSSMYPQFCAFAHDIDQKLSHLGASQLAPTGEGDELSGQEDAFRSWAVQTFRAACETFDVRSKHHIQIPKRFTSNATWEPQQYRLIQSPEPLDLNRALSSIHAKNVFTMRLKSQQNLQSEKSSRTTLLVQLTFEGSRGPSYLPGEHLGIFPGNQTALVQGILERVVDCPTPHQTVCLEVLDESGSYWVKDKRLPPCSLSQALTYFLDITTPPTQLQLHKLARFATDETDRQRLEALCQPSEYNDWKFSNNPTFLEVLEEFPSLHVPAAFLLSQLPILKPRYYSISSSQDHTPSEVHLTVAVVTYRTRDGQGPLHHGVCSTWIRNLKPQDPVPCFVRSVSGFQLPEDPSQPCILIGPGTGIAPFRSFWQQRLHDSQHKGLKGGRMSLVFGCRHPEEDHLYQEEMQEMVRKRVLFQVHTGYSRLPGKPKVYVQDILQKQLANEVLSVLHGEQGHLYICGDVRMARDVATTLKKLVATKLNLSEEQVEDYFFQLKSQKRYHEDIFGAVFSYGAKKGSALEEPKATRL
Assay: not given
More on the design: species or system Escherichia coli.
Conditions: not given
Turning to `COC1=CC(=O)C[C@@H](C)[C@]12Oc1c(Cl)c(OC)cc(OC)c1C2=O` [GRISEOFULVIN], the IC50 result is “Not Active”.
On the same count and under the same terms, to `O=C1NC(=O)C(c2ccccc2)(c2ccccc2)N1` [PHENYTOIN] belongs “Not Active”; to `COc1ccc2c(c1)c(CC(=O)OCC(=O)O)c(C)n2C(=O)c1ccc(Cl)cc1` [ACEMETACIN], “Not Active”.

Test system in a further test: not listed separately
The test is described as follows: DRUGMATRIX: Glutamate, AMPA radioligand binding (ligand: [3H] AMPA). Format: cell membranes, Rattus norvegicus, Wistar, Cerebral cortex, Membrane. The note with it: Not Active = under 50% inhibition at 10 µM.
Turning to `COC1=CC(=O)C[C@@H](C)[C@]12Oc1c(Cl)c(OC)cc(OC)c1C2=O` [GRISEOFULVIN], the IC50 entry is listed as “Not Active” and the Ki entry is “Not Active”.
`O=C1NC(=O)C(c2ccccc2)(c2ccccc2)N1` [PHENYTOIN]: the IC50 entry was “Not Active” and the Ki entry is given as “Not Active”.
Take `COc1ccc2c(c1)c(CC(=O)OCC(=O)O)c(C)n2C(=O)c1ccc(Cl)cc1` [ACEMETACIN]: the IC50 entry was “Not Active” and the Ki entry was “Not Active”.
